Measurements taken from US11054413B2, “Materials and methods for assaying living cells” (UNIVERSITY OF MARYLAND, COLLEGE PARK, priority 2014, dated 2021).
Entries after “also recorded” stand apart in the source; their conditions may differ.

Assays:
Patient-derived cells = test: McTN and stem cell responses of patient-derived cells to drugs (Table 2, predicted); format: cell-based, human; settings: 30 minutes at the concentration given
Experimental: Patient-derived cells are treated with either vehicle (0.1% DMSO) or each of the drugs in Table 2 at the indicated concentration for 30 minutes and then analyzed for McTN incidence.

MDA-MB-436 cells [1] = test: Tethering washing, cell retention; format: cell-based, human
Experimental: (§1) MDA-MB-436 and MCF-7 cells were seeded on PEM coated micro-slides with 4 bilayers and addition of DOPC or DOTAP (50,000 cells/channel). Cells were incubated for 1 h to allow for tethering. To quantify initial cell number, three images per channel were taken for each condition at time 0. After 1 h, existing media was gently removed from the bottom port of each channel and fresh media was added to the top port. Following a wash, three images were taken per channel for each condition using an Olympus CKX41 microscope at 4× magnification. This process was repeated for each wash. The area of the image occupied with cells (as a percent) was quantified using CellProfiler and the average from three images was calculated. The average percentage for each condition was then normalized to the area occupied at time 0.

MCF-7 cells = test: Tethering washing, cell retention; format: cell-based, human
Experimental: as §1

tumor cells [2] = test: Retention of tethered cells after formaldehyde crosslinking of DOTAP to PEM (FIG. 38B); format: cell-based; settings: DOTAP crosslinked to PEM with formaldehyde vs charge interaction, multiple washes
Source text: FIG. 38. PEM coating for McTN studies.
We assembled PEMs from alternating layers of polymethacrylic acid (PMA) and polyacrylamide (PAAm) to coat microfluidic channels with very thin (100-1000 Angstroms) multilayers that retain high optical clarity. […] This crosslinking approach enables us to conduct improved imaging, time-dependent drug treatments without causing cell drift, but also illustrates that photo-crosslinking could be used to develop patterned arrays to facilitate tumor cell mechanical measurements and cell fate studies.

epithelial cells = settings: Liu et al. 2012; Suprynowicz et al. 2012; cited from earlier work
SkBr3 cells [3] = test: McTN scoring in detached SkBr3 cells, confocal microscopy for tubulin (FIG. 4); format: cell-based; settings: nonmetastatic SkBr3 cells
Source text: FIG. 4. Targeting cell division can increase McTNs. […] (Bars=mean±S.D from 3 expts. with McTNs scored blindly).

SkBr3 cells [4] = settings: Balzer et al. 2010, see FIG. 4; cited from earlier work
MDA-436 cells = test: Automated McTN analysis (FIG. 24); format: cell-based, human; settings: at least 10 random cells
Source text: FIG. 24. Automated McTN analysis. […] A gradient vector flow snake algorithm was used to define the cell edges and a local curvature maxima effectively identified McTN ends (yellow diamonds). […] This automated cell shape analysis will also enable calculations of average McTN length, curvature, etc. that will yield more multi-dimensional data for McTN studies.

[5] = tested on: MDA-436 breast tumor cells; test: Quantitative image analysis of time-dependent McTN metrics and tip tracking (FIG. 36-37); format: cell-based, human
Source text: FIG. 36. Quantitative image analysis of time-dependent McTN metrics. A) MDA-436 breast tumor cells that were tethered with a PEM+DOTAP surface coating were imaged for McTNs with confocal microscopy (5 z-slices of 1 μm, max intensity projection shown). A custom MATLAB algorithm was applied to the image data to find the cell periphery (Perimeter trace) and then locate local points of maximum perimeter curvature (McTN Tracker). B) Analyzing cells at 10 s timepoints allows the dynamic movement of McTNs under vehicle-treated conditions to be appreciated (blue lines).
FIG. 37. Tracking individual McTN tip motion. Applying a particle-tracking algorithm to the McTN tips identified in FIG. 36 allows the movement of individual McTN tips (color-coded) to be followed over time.
Using breast cancer cell lines, we developed a custom MATLAB algorithm to identify McTN ends (points of local surface curvature maxima on a perimeter trace). Combined with automated identification of the cell body (erosion mask), both the number and lengths of individual McTNs can be defined. Now that we have succeeded in tethering tumor cells to PEM-DOTAP surfaces, it dramatically improves our ability to collect time-lapse confocal imaging without the blurring that occurs with even minor cell drift. […] By comparison, the variance of all three measures is reduced in Taxol-treated cells, reflecting the effect of stabilizing microtubules. Individual McTN tips can also be followed with MATLAB particle tracking to quantitate McTN dynamics (FIG. 37).

tumor cells [6] = settings: tumor cells treated with taxol; cited from earlier work
CTCs = settings: neoadjuvant treatment in advance of surgery; cited from earlier work
[7] = tested on: stem cell characteristics; settings: Gupta et al. 2009; cited from earlier work
MDA-MB-436 cells [8] = test: Real-time McTN imaging of PEM-DOTAP tethered cells with drug treatment (FIG. 29B); format: cell-based, human; settings: for McTN formation: PEM-DOTAP tether; for McTN dynamics over time: compared to vehicle control, time-lapse
Experimental: FIG. 29. Lipid tethering allows for real-time microtentacle imaging in response to drug treatment and minimizes effects of drift. (A) Microtentacle (arrows) imaging of MDA-MB-436 cells seeded on micro-slides with PEM-no tether (i-iii) and PEM-DOTAP tether (iv-vi). Representative […] slice (i and iv), maximum z-projection of 5 slices at one time point (ii and v), and maximum t-projection after 20 frames (iii and vi) are shown at 60× magnification. (B) Microtentacle (arrow) imaging of MDA-MB-436 cells seeded on micro-slides with PEM-DOTAP tether after treatment with 5 uM colchicine for 15 minutes and 1 μg/ml Taxol for 120 minutes. Maximum intensity z-projections of five […] slices at one time point are shown at 60× magnification. Scale bar represents […]
MDA-MB-436 cells were trypsinized, spun down, and resuspended in phenol red-free and serum-free DMEM. Cells were seeded on PEM coated micro-slides with 4 bilayers and PEM coated micro-slides with 4 bilayers and the addition of DOTAP (50,000 cells/channel). Cells were incubated for 1 h to allow for tethering. After 1 h, one wash was done where the existing media was gently removed from the bottom port of each channel and fresh media was added to top port. This wash was to ensure only tethered cells were analyzed. After this wash, CellMask orange cell membrane dye was added to each channel to a final concentration of 1:10,000. McTN imaging was done on an Olympus FV100 confocal laser scanning microscope at 60× magnification. Five 1 uM slices and 20 frames at a 10 sec frame rate were taken for at least five image sets for each condition. Colchicine was added to each channel at a final concentration of 5 uM and cells were imaged after 15 minutes. Taxol was added to each channel at final concentration of 1 μg/ml and imaged after 120 minutes. Cells were again imaged with five […] slices and 20 frames at a 10 second frame rate.

[9] = terminal lipid on 4 PMA/PAAm bilayers, successive washes
[10] = first wash, 4 PMA/PAAm bilayers, 1 h tethering
[11] = Taxol 1 μg/ml, PEM+DOTAP tethered
[12] = Taxol, McTN tip particle tracking

Structure (SMILES): CN(C)S(=O)(=O)c1ccc2c(c1)/C(=C/c1cc3c([nH]1)CCCC3)C(=O)N2 [SU6656]
- Predicted stemness & McTN effect (Patient-derived cells): Increase

Structure (SMILES): CC(=O)O[C@@]12CO[C@@H]1C[C@H](O)[C@@]1(C)C(=O)[C@H](O)C3=C(C)[C@@H](OC(=O)[C@H](O)[C@@H](NC(=O)OC(C)(C)C)c4ccccc4)C[C@@](O)([C@@H](OC(=O)c4ccccc4)[C@H]21)C3(C)C [Docetaxel]
- Predicted stemness & McTN effect (Patient-derived cells): Increase

Structure (SMILES): CC[C@]1(O)C[C@@H]2CN(CCc3c([nH]c4ccccc34)[C@@](C(=O)OC)(c3cc4c(cc3OC)N(C)[C@H]3[C@@](O)(C(=O)OC)[C@H](OC(C)=O)[C@]5(CC)C=CCN6CC[C@]43[C@@H]65)C2)C1 [Vinblastine]
- Predicted stemness & McTN effect (Patient-derived cells): Decrease

Structure (SMILES): CCCCCCCC/C=C\CCCCCCCC(=O)OC[C@H](COP(=O)([O-])OCC[N+](C)(C)C)OC(=O)CCCCCCC/C=C\CCCCCCCC [DOPC, 1,2-dioleoyl-sn-glycero-3-phosphocholine]
- tethering of tumor cells (MDA-MB-436 cells [1]; [9]): unable to effectively tether either type of tumor cells
- tethering of tumor cells (MCF-7 cells; [9]): unable to effectively tether either type of tumor cells

Structure (SMILES): O=S(=O)(c1cccc2cnccc12)N1CCCNCC1 [Fasudil]
- Predicted stemness & McTN effect (Patient-derived cells): Increase

Structure (SMILES): C/C(=C\c1csc(C)n1)[C@@H]1C[C@@H]2O[C@]2(C)CCC[C@H](C)[C@H](O)[C@@H](C)C(=O)C(C)(C)[C@@H](O)CC(=O)N1 [Ixabepilone]
- Predicted stemness & McTN effect (Patient-derived cells): Increase

Structure (SMILES): CCCCCCCC/C=C\CCCCCCCC(=O)OCC(C[N+](C)(C)C)OC(=O)CCCCCCC/C=C\CCCCCCCC (stereo not shown) [DOTAP, 1,2-dioleoyl-3-trimethylammonium-propane]
- cell retention (MDA-MB-436 cells [1]; [10]): 38%
- cell retention (MCF-7 cells; after five washes): 15%
- cell retention (MCF-7 cells; [10]): 80%
- retention of tethered tumor cells (tumor cells [2]): dramatically improves retention of tethered tumor cells during multiple washes; also recorded: significantly improves initial tethering efficiency and resistance to washing

Structure (SMILES): C=C1C(=O)O[C@@H]2/C=C(\C)CC/C=C(\C)CC[C@@H]12 [Costunolide]
- Predicted stemness & McTN effect (Patient-derived cells): Decrease

Structure (SMILES): C[C@@H](N)[C@H]1CC[C@H](C(=O)Nc2ccncc2)CC1 [Y-27632]
- stem cell conversion (epithelial cells): conversion is occurring
- Predicted stemness & McTN effect (Patient-derived cells): Increase

Structure (SMILES): C/C1=C\[C@H](C)C[C@H](C)OC(=O)C[C@H](c2ccc(O)cc2)NC(=O)[C@@H](Cc2c(Br)[nH]c3ccccc23)N(C)C(=O)[C@H](C)NC(=O)[C@@H](C)C1 [Jasplakinolide]
- levels of McTNs (SkBr3 cells [3]; Jas 500 nM): increases levels of McTNs dramatically
- McTNs (SkBr3 cells [4]): strongly promote McTNs
- Predicted stemness & McTN effect (Patient-derived cells): Decrease

Structure (SMILES): CC(=O)O[C@H]1C(=O)[C@@]2(C)[C@H]([C@H](OC(=O)c3ccccc3)[C@]3(O)C[C@H](OC(=O)[C@H](O)[C@@H](NC(=O)c4ccccc4)c4ccccc4)C(C)=C1C3(C)C)[C@]1(OC(C)=O)CO[C@@H]1C[C@@H]2O [Paclitaxel]
- levels of McTNs (SkBr3 cells [3]; Paclitaxel-Taxol 1.2 μM): increases levels of McTNs dramatically
- McTNs (SkBr3 cells [4]): strongly promote McTNs
- average number of McTNs per cell (MDA-436 cells; paclitaxel 1 μM): increases McTNs, but this does not reach significance
- range of McTN measurements and variance of all metrics ([5]; Taxol 1 μg/ml, 10 s timepoints): reduced; also recorded: strongly reduces the range of McTN measurements and the variance of all metrics
- McTN length [5, 11]: increases
- number of McTNs per cell >4 μm from cell periphery (McTN number) [5, 11]: increases the number of McTNs per cell
- McTN persistence (area over which a McTN moves) [5, 12]: make McTNs more persistent
- average McTN speed [5, 12]: reduce average McTN speed
- Predicted stemness & McTN effect (Patient-derived cells): Increase
- lung trapping of tumor cells (tumor cells [6]): greater lung trapping of tumor cells
- increase of CTCs (CTCs): more than 1000 fold
- stem cell characteristics and tumor metastasis [7]: increases stem cell characteristics and even tumor metastasis
- McTN formation (MDA-MB-436 cells [8]; Taxol 1 μg/ml, 120 minutes): enhances McTNs; also recorded: enhanced McTN formation
- McTN dynamics over time (MDA-MB-436 cells [8]; taxol): hyperstabilizes McTNs dramatically decreasing their dynamics

Structure (SMILES): COc1cc2c(c(OC)c1OC)-c1ccc(OC)c(=O)cc1[C@@H](NC(C)=O)CC2 [Colchicine]
- average number of McTNs per cell (MDA-436 cells; colchicine 50 μM): significantly reduces the average number of McTNs per cell
- McTNs ([5]; Colchicine 50 μM, PEM+DOTAP tethered): completely inhibits McTN generation; also recorded: completely eliminates McTNs
- Predicted stemness & McTN effect (Patient-derived cells): Decrease
- McTN formation (MDA-MB-436 cells [8]; colchicine 5 uM, 15 minutes): decreases microtentacles; also recorded: inhibited McTN formation
- McTN dynamics over time (MDA-MB-436 cells [8]; colchicine): shrinks McTNs and enhances cell blebbing

Structure (SMILES): O=S(=O)(c1cccc2c(I)cccc12)N1CCCNCC1 [ML-7]
- Predicted stemness & McTN effect (Patient-derived cells): Decrease
